The text below walks through data of patent publication US20200002283A1, “PYRAZOLE DERIVATIVES HAVING ACTIVITY AGAINST PAIN” (priority 2016, published 2020).

The target of experiment [1] is Human α2δ-1 subunit of Cav2.2 calcium channel (Homo sapiens, UniProt P54289). Put plainly: Human α2δ-1 subunit of Cav2.2 calcium channel assay ([3H]-Gabapentin binding). The protocol: Human α2δ-1 Subunit of Cav2.2 Calcium Channel Assay
Human α2δ-1 enriched membranes (2.5 μg) were incubated with 15 nM of radiolabeled [3H]-Gabapentin in assay buffer containing Hepes-KOH 10 mM, pH 7.4. NSB (non specific binding) was measured by adding 10 μM pregabalin. After 60 min incubation at 27° C., binding reaction was terminated by filtering through Multiscreen GF/C (Millipore) presoaked in 0.5% polyethyleneimine in Vacuum Manifold Station, followed by 3 washes with ice-cold filtration buffer containing 50 mM Tris-HCl, pH 7.4. Filter plates were dried at 60° C. for 1 hour and 30 μl of scintillation cocktail were added to each well before radioactivity reading. Readings were performed in a Trilux 1450 Microbeta radioactive counter (Perkin Elmer).

The target in a further experiment is T1, human μ-opioid receptor (Homo sapiens, UniProt P35372).
T1 construct: expressed in transfected cells; host or cells: CHO-K1
T1 sequence (P35372 whole entry): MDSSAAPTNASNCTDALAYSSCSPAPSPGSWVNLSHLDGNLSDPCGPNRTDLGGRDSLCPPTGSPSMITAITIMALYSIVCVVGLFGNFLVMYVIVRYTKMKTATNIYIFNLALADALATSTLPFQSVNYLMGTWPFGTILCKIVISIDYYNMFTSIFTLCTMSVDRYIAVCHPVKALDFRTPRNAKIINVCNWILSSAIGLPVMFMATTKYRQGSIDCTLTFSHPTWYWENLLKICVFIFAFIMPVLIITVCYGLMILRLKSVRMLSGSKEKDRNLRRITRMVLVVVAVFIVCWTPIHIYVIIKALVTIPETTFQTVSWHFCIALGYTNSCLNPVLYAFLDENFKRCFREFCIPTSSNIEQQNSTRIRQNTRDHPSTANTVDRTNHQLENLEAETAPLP
Put plainly: Human μ-opioid receptor radioligand assay ([3H]-DAMGO). The class given is binding. The procedure: Human μ-Opioid Receptor Radioligand Assay
To investigate binding properties of test compounds to human μ-opioid receptor, transfected CHO-K1 cell membranes and [^3H]-DAMGO (Perkin Elmer, ES-542-C), as the radioligand, were used. The assay was carried out with 20 μg of membrane suspension, 1 nM of [^3H]-DAMGO in either absence or presence of either buffer or 10 μM Naloxone for total and non-specific binding, respectively. Binding buffer contained Tris-HCl 50 mM, MgCl2 5 mM at pH 7.4. Plates were incubated at 27° C. for 60 minutes. After the incubation period, the reaction mix was then transferred to MultiScreen HTS, FC plates (Millipore), filtered and plates were washed 3 times with ice-cold 10 mM Tris-HCL (pH 7.4). Filters were dried and counted at approximately 40% efficiency in a MicroBeta scintillation counter (Perkin-Elmer) using EcoScint liquid scintillation cocktail.

Where [2] appears, read: human α2δ-1 enriched membranes, 15 nM [3H]-Gabapentin, read-out: α2δ-1 binding.
Setting [3] is: transfected CHO-K1 cell membranes, 1 nM [3H]-DAMGO, read-out: μ binding.

Structures are written as SMILES. Like-named read-outs stand apart in the source and are kept apart here.

Human α2δ-1 subunit of Cav2.2 calcium channel, sequence (P54289 25-1103): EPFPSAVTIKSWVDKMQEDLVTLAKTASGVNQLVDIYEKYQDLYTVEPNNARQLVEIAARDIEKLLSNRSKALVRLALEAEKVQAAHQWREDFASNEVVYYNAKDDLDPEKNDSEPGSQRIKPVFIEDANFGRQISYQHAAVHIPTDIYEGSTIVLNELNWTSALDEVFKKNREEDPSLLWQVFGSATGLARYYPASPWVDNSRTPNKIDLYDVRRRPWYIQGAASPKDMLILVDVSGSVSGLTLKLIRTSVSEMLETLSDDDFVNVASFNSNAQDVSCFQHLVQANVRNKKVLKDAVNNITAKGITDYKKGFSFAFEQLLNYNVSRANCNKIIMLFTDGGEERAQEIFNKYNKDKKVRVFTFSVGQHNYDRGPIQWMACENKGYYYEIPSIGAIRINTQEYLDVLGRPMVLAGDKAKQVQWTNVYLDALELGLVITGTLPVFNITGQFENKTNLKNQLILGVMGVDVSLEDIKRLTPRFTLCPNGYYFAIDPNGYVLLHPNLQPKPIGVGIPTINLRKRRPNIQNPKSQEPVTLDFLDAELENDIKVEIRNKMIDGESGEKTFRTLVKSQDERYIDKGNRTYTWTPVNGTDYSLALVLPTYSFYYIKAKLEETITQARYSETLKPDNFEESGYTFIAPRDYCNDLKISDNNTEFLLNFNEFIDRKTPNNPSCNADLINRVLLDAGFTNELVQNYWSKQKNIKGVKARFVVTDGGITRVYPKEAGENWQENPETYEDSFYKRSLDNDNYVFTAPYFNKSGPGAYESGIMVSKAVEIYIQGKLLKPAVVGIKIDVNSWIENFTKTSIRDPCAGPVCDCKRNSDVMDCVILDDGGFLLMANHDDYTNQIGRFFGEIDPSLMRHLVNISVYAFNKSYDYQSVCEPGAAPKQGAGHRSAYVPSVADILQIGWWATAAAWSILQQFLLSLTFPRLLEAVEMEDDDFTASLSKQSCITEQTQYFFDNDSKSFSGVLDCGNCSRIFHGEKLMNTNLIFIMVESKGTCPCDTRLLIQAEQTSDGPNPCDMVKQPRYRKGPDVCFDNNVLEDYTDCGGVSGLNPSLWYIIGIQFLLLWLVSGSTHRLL

For `CC(N)Cc1cc(Cc2ccc(O)cc2)n(-c2ccc(Cl)cc2Cl)n1` (centres unmarked) [Example 68, 4-{[3-(2-Aminopropyl)-1-(2,4-dichlorophenyl)-1H-pyrazol-5-yl]methyl}phenol], the values for the Ki (in experiment [1]; at human μ-opioid receptor) were more than 5000 nM and less than 100 nM, respectively.
Consider `COc1ccc(-n2nc([C@@H](C)N)cc2Cc2ccc(O)cc2)c(Cl)c1` [Example 69, (R)-4-{[3-(1-Aminoethyl)-1-(2-chloro-4-methoxyphenyl)-1H-pyrazol-5-yl]methyl}phenol], for which the Ki in experiment [1] is more than 5000 nM; at human μ-opioid receptor, 100 to 500 nM.
Take `COc1ccc(-n2nc([C@H](C)N)cc2Cc2ccc(O)cc2)c(Cl)c1` [Example 70, (S)-4-{[3-(1-Aminoethyl)-1-(2-chloro-4-methoxyphenyl)-1H-pyrazol-5-yl]methyl}phenol]: the Ki in experiment [1] was less than 500 nM; at human μ-opioid receptor it was 100 to 500 nM.
Turning to `NC(CO)c1cc(Cc2ccc(O)cc2)n(-c2ccc(Cl)cc2Cl)n1` (centres unmarked) [Example 71, 4-{[3-(1-Amino-2-hydroxyethyl)-1-(2,4-dichlorophenyl)-1H-pyrazol-5-yl]methyl}phenol], the figures for the Ki (in experiment [1]; at human μ-opioid receptor) were more than 5000 nM and 100 to 500 nM, respectively.
The like results for `NC(CN1CCCCC1)c1cc(Cc2ccc(O)cc2)n(-c2ccc(Cl)cc2Cl)n1` (centres unmarked) [Example 72, 4-({3-[1-Amino-2-(piperidin-1-yl)ethyl]-1-(2,4-dichlorophenyl)-1H-pyrazol-5-yl}methyl)phenol] were, in that order, more than 5000 nM and 100 to 500 nM.
Regarding `NC(CN1CCOCC1)c1cc(Cc2ccc(O)cc2)n(-c2ccc(Cl)cc2Cl)n1` (centres unmarked) [Example 73, 4-{[3-(1-Amino-2-morpholinoethyl)-1-(2,4-dichlorophenyl)-1H-pyrazol-5-yl]methyl}phenol], the Ki in experiment [1] (setting [2]) was more than 5000 nM; at human μ-opioid receptor (setting [3]) it was more than 500 nM.
The like results for `NCc1cc(Cc2ccc(Nc3nccs3)cc2)n(-c2ccc(Cl)cc2Cl)n1` [Example 74, N-(4-{[3-(Aminomethyl)-1-(2,4-dichlorophenyl)-1H-pyrazol-5-yl]methyl}phenyl)thiazol-2-amine] were, in that order, 500 to 3000 nM and more than 500 nM.
The like results for `CC(N)c1cc(Cc2ccc(OCCO)cc2)n(-c2ccc(Cl)cc2Cl)n1` (centres unmarked) [Example 75, 2-(4-{[3-(1-Aminoethyl)-1-(2,4-dichlorophenyl)-1H-pyrazol-5-yl]methyl}phenoxy)ethan-1-ol] were, in that order, 500 to 3000 nM and more than 500 nM.
`NC(CC(=O)O)c1cc(Cc2ccc(O)cc2)n(-c2ccc(Cl)cc2Cl)n1` (centres unmarked) [Example 76, 3-Amino-3-[1-(2,4-dichlorophenyl)-5-(4-hydroxybenzyl)-1H-pyrazol-3-yl]propanoic acid]: the results for the Ki (in experiment [1]; on human μ-opioid receptor) were more than 5000 nM and 100 to 500 nM, respectively.
The like results for `NC(=O)CC(N)c1cc(Cc2ccc(O)cc2)n(-c2ccc(Cl)cc2Cl)n1` (centres unmarked) [Example 77, 3-Amino-3-[1-(2,4-dichlorophenyl)-5-(4-hydroxybenzyl)-1H-pyrazol-3-yl]propanamide] were, in that order, more than 5000 nM and less than 100 nM.
